Columns and labels:
[1] = DRUGMATRIX: Calcium Channel Type L, Phenylalkylamine radioligand binding (ligand: [3H] (-)-Desmethoxyverapamil (D-888)); type: cell membranes, Rattus norvegicus, Wistar, Brain, Membrane; details: Not Active = under 50% inhibition at 10 µM
Carbonic anhydrase 2 = Carbonic anhydrase 2 (Homo sapiens, UniProt P00918); assay: DRUGMATRIX: Carbonic Anhydrase II enzyme inhibition (substrate: 4-Nitrophenyl acetate (4-NPA)); type: tissue-based, Erythrocyte; details: erythrocyte; Not Active = under 50% inhibition at 10 µM
[2] = target: T1, C-X-C chemokine receptor type 2 (Homo sapiens, UniProt P25025); type: cell membranes, Membrane; details: cho-k1; note: in other assays of this panel Not Active means under 50% inhibition at 10 µM
T1 sequence (P25025 whole entry): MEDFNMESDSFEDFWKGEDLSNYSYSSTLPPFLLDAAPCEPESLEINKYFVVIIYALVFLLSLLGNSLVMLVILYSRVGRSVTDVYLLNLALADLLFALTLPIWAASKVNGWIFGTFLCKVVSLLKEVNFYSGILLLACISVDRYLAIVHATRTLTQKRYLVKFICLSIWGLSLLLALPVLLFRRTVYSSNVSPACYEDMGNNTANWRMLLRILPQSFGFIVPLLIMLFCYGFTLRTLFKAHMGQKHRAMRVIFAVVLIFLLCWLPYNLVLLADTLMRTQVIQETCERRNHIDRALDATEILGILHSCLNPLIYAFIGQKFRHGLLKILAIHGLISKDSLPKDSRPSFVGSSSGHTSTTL

D(4) dopamine receptor = target: T2, D(4) dopamine receptor (Homo sapiens, UniProt P21917); assay: DRUGMATRIX: Dopamine D4.2 radioligand binding (ligand: [3H] Spiperone); type: cell membranes, CHO-K1, Membrane; details: cho-k1; Not Active = under 50% inhibition at 10 µM
T2 sequence (P21917 whole entry): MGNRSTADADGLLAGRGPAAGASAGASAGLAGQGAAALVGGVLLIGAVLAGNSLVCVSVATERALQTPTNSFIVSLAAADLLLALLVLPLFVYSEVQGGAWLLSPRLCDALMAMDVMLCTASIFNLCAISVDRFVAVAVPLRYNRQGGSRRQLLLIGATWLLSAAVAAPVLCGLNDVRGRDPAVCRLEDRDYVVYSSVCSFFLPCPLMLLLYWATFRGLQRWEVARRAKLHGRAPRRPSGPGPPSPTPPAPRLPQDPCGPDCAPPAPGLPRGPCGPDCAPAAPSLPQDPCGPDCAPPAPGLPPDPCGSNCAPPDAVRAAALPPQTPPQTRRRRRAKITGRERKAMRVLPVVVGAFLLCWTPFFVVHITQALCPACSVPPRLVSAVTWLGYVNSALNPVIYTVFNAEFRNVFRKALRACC

Endothelin-1 receptor = target: T3, Endothelin-1 receptor (Homo sapiens, UniProt P25101); type: cell membranes, CHO-K1, Membrane; details: cho-k1; note: in other assays of this panel Not Active means under 50% inhibition at 10 µM
T3 sequence (P25101 whole entry): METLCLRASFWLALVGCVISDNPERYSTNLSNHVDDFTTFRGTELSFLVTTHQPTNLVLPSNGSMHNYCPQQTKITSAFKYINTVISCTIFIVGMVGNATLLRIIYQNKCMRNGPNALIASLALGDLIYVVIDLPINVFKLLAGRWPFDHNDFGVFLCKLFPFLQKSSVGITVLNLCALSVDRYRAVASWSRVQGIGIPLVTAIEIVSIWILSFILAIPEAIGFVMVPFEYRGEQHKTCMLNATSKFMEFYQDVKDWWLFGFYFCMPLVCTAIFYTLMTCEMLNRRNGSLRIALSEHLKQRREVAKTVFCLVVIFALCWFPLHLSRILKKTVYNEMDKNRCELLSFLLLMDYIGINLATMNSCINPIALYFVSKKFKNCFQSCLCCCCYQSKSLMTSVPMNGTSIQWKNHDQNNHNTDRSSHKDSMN

[3] = DRUGMATRIX: GABAA, Muscimol, Central radioligand binding (ligand: [3H] Muscimol); type: cell membranes, Rattus norvegicus, Wistar, Brain, Membrane; details: Not Active = under 50% inhibition at 10 µM
Melanocortin receptor 4 = Melanocortin receptor 4 (Homo sapiens, UniProt P32245); type: cell membranes, Membrane; details: hek293; note: in other assays of this panel Not Active means under 50% inhibition at 10 µM
Cytochrome P450 2D6 = Cytochrome P450 2D6 (Homo sapiens, UniProt P10635); details: bti-tn-5b1-4; note: in other assays of this panel Not Active means under 50% inhibition at 10 µM
Cytochrome P450 2D6, sequence (P10635 whole entry): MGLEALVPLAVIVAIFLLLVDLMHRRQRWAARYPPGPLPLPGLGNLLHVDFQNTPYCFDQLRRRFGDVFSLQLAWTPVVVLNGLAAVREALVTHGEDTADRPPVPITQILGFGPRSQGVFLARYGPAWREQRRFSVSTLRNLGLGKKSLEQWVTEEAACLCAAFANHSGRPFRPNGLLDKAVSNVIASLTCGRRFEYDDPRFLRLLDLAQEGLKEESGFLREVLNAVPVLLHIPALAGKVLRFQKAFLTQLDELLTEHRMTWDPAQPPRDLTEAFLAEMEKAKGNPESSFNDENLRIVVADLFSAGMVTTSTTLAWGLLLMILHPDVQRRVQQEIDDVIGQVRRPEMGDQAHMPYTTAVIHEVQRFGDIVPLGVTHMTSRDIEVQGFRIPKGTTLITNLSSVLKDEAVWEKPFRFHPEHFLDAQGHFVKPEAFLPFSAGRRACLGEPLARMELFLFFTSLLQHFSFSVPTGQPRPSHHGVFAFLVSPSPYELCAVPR

Melanocortin receptor 4, sequence (P32245 whole entry): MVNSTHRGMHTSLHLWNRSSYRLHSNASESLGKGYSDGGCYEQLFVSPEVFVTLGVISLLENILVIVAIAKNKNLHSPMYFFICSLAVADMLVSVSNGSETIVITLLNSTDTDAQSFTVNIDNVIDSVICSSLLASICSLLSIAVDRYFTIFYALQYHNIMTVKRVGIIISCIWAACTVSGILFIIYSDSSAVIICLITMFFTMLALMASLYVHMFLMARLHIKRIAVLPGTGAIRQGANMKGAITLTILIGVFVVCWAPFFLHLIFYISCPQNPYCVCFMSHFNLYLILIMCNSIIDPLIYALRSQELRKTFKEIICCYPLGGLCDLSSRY

CC(C)(CO)C(O)C(=O)NCCCO (centres undefined) [PANTHENOL]
Not Active: IC50 [1] | Ki [1] | IC50 (Carbonic anhydrase 2) | IC50 [2] | IC50 (D(4) dopamine receptor) | IC50 (Endothelin-1 receptor) | IC50 [3] | Ki [3] | IC50 (Melanocortin receptor 4) | IC50 (Cytochrome P450 2D6) | Ki (Cytochrome P450 2D6)

COc1ccc(Cc2nccc3cc(OC)c(OC)cc23)cc1OC [PAPAVERINE]
Not Active: IC50 [1] | Ki [1] | IC50 (Carbonic anhydrase 2) | IC50 [2] | IC50 (D(4) dopamine receptor) | IC50 (Endothelin-1 receptor) | IC50 [3] | Ki [3] | IC50 (Melanocortin receptor 4) | IC50 (Cytochrome P450 2D6) | Ki (Cytochrome P450 2D6)

CCCCC1C(=O)N(c2ccccc2)N(c2ccccc2)C1=O [PHENYLBUTAZONE]
Not Active: IC50 [1] | Ki [1] | IC50 (Carbonic anhydrase 2) | IC50 [2] | IC50 (D(4) dopamine receptor) | IC50 (Endothelin-1 receptor) | IC50 [3] | Ki [3] | IC50 (Melanocortin receptor 4) | IC50 (Cytochrome P450 2D6) | Ki (Cytochrome P450 2D6)

Cc1cccc(Nc2cc(Cl)nc(SCC(=O)O)n2)c1C [PIRINIXIC ACID]
Not Active: IC50 [1] | Ki [1] | IC50 (Carbonic anhydrase 2) | IC50 [2] | IC50 (D(4) dopamine receptor) | IC50 (Endothelin-1 receptor) | IC50 [3] | Ki [3] | IC50 (Melanocortin receptor 4) | IC50 (Cytochrome P450 2D6) | Ki (Cytochrome P450 2D6)

CC[C@H](C)C(=O)O[C@H]1C[C@H](O)C=C2C=C[C@H](C)[C@H](CC[C@@H](O)C[C@@H](O)CC(=O)O)[C@H]21 [PRAVASTATIN]
Not Active: IC50 [1] | Ki [1] | IC50 (Carbonic anhydrase 2) | IC50 [2] | IC50 (D(4) dopamine receptor) | IC50 (Endothelin-1 receptor) | IC50 [3] | Ki [3] | IC50 (Melanocortin receptor 4) | IC50 (Cytochrome P450 2D6) | Ki (Cytochrome P450 2D6)

CC(C)(Sc1cc(C(C)(C)C)c(O)c(C(C)(C)C)c1)Sc1cc(C(C)(C)C)c(O)c(C(C)(C)C)c1 [PROBUCOL]
Not Active: IC50 [1] | Ki [1] | IC50 (Carbonic anhydrase 2) | IC50 [2] | IC50 (D(4) dopamine receptor) | IC50 (Endothelin-1 receptor) | IC50 [3] | Ki [3] | IC50 (Melanocortin receptor 4) | IC50 (Cytochrome P450 2D6) | Ki (Cytochrome P450 2D6)

COBALT(II) ACETYLACETONATE
Not Active: IC50 [1] | Ki [1] | IC50 (Carbonic anhydrase 2) | Ki (Carbonic anhydrase 2) | IC50 [2] | Ki [2] | IC50 (D(4) dopamine receptor) | Ki (D(4) dopamine receptor) | IC50 (Endothelin-1 receptor) | Ki (Endothelin-1 receptor) | IC50 [3] | Ki [3] | IC50 (Melanocortin receptor 4) | Ki (Melanocortin receptor 4) | IC50 (Cytochrome P450 2D6) | Ki (Cytochrome P450 2D6)

INSULIN HUMAN
Not Active: IC50 [1] | Ki [1] | IC50 (Carbonic anhydrase 2) | Ki (Carbonic anhydrase 2) | IC50 [2] | Ki [2] | IC50 (D(4) dopamine receptor) | Ki (D(4) dopamine receptor) | IC50 (Endothelin-1 receptor) | Ki (Endothelin-1 receptor) | IC50 [3] | Ki [3] | IC50 (Melanocortin receptor 4) | Ki (Melanocortin receptor 4) | IC50 (Cytochrome P450 2D6) | Ki (Cytochrome P450 2D6)

POLYVINYL ALCOHOL
Not Active: IC50 [1] | Ki [1] | IC50 (Carbonic anhydrase 2) | Ki (Carbonic anhydrase 2) | IC50 [2] | Ki [2] | IC50 (D(4) dopamine receptor) | Ki (D(4) dopamine receptor) | IC50 (Endothelin-1 receptor) | Ki (Endothelin-1 receptor) | IC50 [3] | Ki [3] | IC50 (Melanocortin receptor 4) | Ki (Melanocortin receptor 4) | IC50 (Cytochrome P450 2D6) | Ki (Cytochrome P450 2D6)

Source: ChEMBL document CHEMBL1909046, “DrugMatrix in vitro pharmacology data”
